Data on 4 compounds can be found in ChEMBL document CHEMBL1142653, “In silico prediction of membrane permeability from calculated molecular parameters” (J Med Chem, 2005).

A short description of one data set: Apparent permeability of the compound was determined in MDCK (madin darby canine kidney) strain I; Activity = Papp 10e-6. In kind it is ADME, Canis lupus familiaris. To be noted: dog.
In general, Papp refers to a coefficient for how fast a substance crosses the barrier. For `O=C(N[C@H](CO)[C@H](O)c1ccc([N+](=O)[O-])cc1)C(Cl)Cl` [CHLORAMPHENICOL], the Papp came out at 3.15 ×10⁻⁶ cm/s.

For the compound `COCCc1ccc(OCC(O)CNC(C)C)cc1` (stereo unspecified) [METOPROLOL], the Papp is 37.8 ×10⁻⁶ cm/s.

As to `CC(C)NCC(O)COc1cccc2ccccc12` (stereo unspecified) [PROPRANOLOL], the Papp came to 34.4 ×10⁻⁶ cm/s.

With `CN/C(=C\[N+](=O)[O-])NCCSCc1ccc(CN(C)C)o1` [RANITIDINE], the Papp was 0.27 ×10⁻⁶ cm/s.

A short description of a further data set: Apparent permeability of the compound was determined inCaco-2 (human colon carcinoma) cells; Activity = Papp 10E-6. In kind it is ADME. The conditions noted are these: Caco-2. On the technique in general: Caco-2 cells form a polarised layer with tight junctions and transporters.
As for `COCCc1ccc(OCC(O)CNC(C)C)cc1` (stereo unspecified) [METOPROLOL], the Papp was 18.2 ×10⁻⁶ cm/s.

Regarding `CC(C)NCC(O)COc1cccc2ccccc12` (stereo unspecified) [PROPRANOLOL], the Papp was determined as 12.6 ×10⁻⁶ cm/s.
